{"source": "patent US10906946B2", "about": "“Thrombin inhibitors” (priority 2015, dated 2021)", "key": {"clot-bound thrombin": {"target": "clot-bound thrombin (Homo sapiens, UniProt P00734)", "test": "biochemical", "procedure": "Clot-bound thrombin activity was tested using S2238. Briefly, fibrin clots were prepared by incubating 100 μL of 2 mg/mL fibrinogen (in 50 mM HEPES buffer, pH 7.5, 150 mM NaCl, 10 mg/mL CaCl2) with 100 μL 30 nM thrombin. After 2 h at 37° C., the clots were extensively washed with the same buffer. This washing was repeated after every three hours for a period of 24 hr. […] Chromogenic substrate, S2238 (final concentration 200 μM) was then added and the reaction mixture was incubated for 90 min at 37° C. Aliquots were taken, and substrate hydrolysis was estimated by end point reading at 405 nm, using a Tecan InfinitePro microplate reader. Experiments were performed in quadruplicate and percentage inhibition was plotted."}, "[1]": {"system": "FeCl3-induced carotid artery thrombosis", "test": "Ferric chloride-induced carotid artery thrombosis model", "format": "in vivo, C57BL/6 male mice", "conditions": "mice, 10% FeCl3", "method": "All animal experiments were carried out under protocol 041/12 approved by Institutional Animal Care and Use Committee, National University of Singapore. The ferric chloride induced carotid artery thrombosis model was performed as described previously [Eckly A, et al., J Thromb Haemost 9: 779-89 (2011)] with minor modifications. Typically, C57BL/6 male mice (9-11 weeks old, 24.5-27.5 g) were anesthetized with an intraperitoneal injection of ketamine (75 mg/kg) and medetomidine (1 mg/kg). 100 μL of different doses of avathrin were injected into the mice via tail vein. The right carotid artery was dissected using blunt dissection and a vascular injury was caused applying filter paper of 2 mm×2 mm saturated with FeCl3 on top of the carotid artery. After 3 min, the filter paper was removed and the vessel was washed with sterile normal saline. To determine the time to occlusion, a miniature Doppler flow probe (Transonic Systems Inc., Ithaca, N.Y., USA) was placed around the carotid artery and blood flow was recorded using a Transonic® flow meter from ADInstruments (Dunedin, New Zealand). The maximal time for monitoring the blood flow after injury was 30 min. Mice were euthanized by cervical dislocation immediately after the completion of the experiment and prior to recovery from anesthesia."}, "[2]": {"system": "other serine proteases (trypsin, fIXa, fXIa, fXa, chymotrypsin, tPA, fVIIa, plasmin, APC, kallikrein, urokinase, fXIIa)", "test": "Serine protease selectivity screen (amidolytic assays with chromogenic substrates)", "format": "biochemical", "method": "Avathrin was screened for its selectivity against 13 serine proteases including procoagulant, anticoagulant, fibrinolytic and classical serine proteases (thrombin, trypsin, fIXa, fXIa, fXa, chymotrypsin, tPA, fVIIa, plasmin, APC, kallikrien, urokinase and fXIIa). […]\nThrombin amidolytic activity assays for all peptides were performed in 96-wells microtiter plates in 50 mM Tris buffer (pH 7.4) containing 100 mM NaCl and 1 mg/ml bovine serum albumin. […] The rates of formation of p-nitroaniline were followed by measuring the absorbance at 405 nm for 10 min with a Tecan InfinitePro M200 microplate reader from Tecan (Männedorf, Switzerland). […] To measure the inhibitory constants, different concentrations of S2238 were used and the residual velocities were determined using the Morrison's tight binding equation. Inhibition of thrombin fibrinogenolytic activity of peptides were tested by measuring absorbance at 650 nm using a Sunrise microplate reader from Tecan (Männedorf, Switzerland) as described previously [Koh C Y, et al., J Biol Chem 282: 29101-13 (2007)]. […] Effects of avathrin on the amidolytic activities of these serine proteases were determined using respective chromogenic substrates. […]"}}, "note": "Peptide text beside a SMILES is read from it."}
{"smiles": "CC[C@H](C)[C@H](NC(=O)[C@H](CCCCN)NC(=O)[C@@H]1CCCN1C(=O)[C@@H](NC(=O)[C@H](C)NC(=O)[C@@H](NC(=O)[C@H](CCC(N)=O)NC(=O)[C@H](Cc1c[nH]cn1)NC(=O)CNC(=O)CNC(=O)[C@@H](N)CO)[C@@H](C)O)C(C)C)C(=O)N[C@@H](CO)C(=O)N[C@@H](CCCCN)C(=O)N[C@@H](CCC(N)=O)C(=O)NCC(=O)N[C@@H](CC(C)C)C(=O)NCC(=O)NCC(=O)N[C@@H](CC(=O)O)C(=O)N[C@@H](Cc1ccccc1)C(=O)N[C@@H](CCC(=O)O)C(=O)N[C@@H](CCC(=O)O)C(=O)N[C@H](C(=O)N1CCC[C@H]1C(=O)N[C@@H](CO)C(=O)N[C@@H](CC(=O)O)C(=O)N[C@@H](CCC(=O)O)C(=O)N[C@H](C(=O)N[C@H](C(=O)N[C@@H](CCC(=O)O)C(=O)O)[C@@H](C)CC)[C@@H](C)CC)[C@@H](C)CC", "note": "[Avathrin] (H-SGGHQTAVPKISKQGLGGDFEEIPSDEIIE-OH; N-terminus and C-terminus assumed)", "values": [{"measurement": "IC50", "setting": "clot-bound thrombin", "value": "1740 ± 350", "unit": "nM"}, {"measurement": "time to occlusion (TTO)", "setting": "[1]; 3 mg/kg intravenously", "value": "15.03 ± 3.23", "unit": "min"}, {"measurement": "time to occlusion (TTO)", "setting": "[1]; 10 mg/kg intravenously", "value": "22.51 ± 4.19", "unit": "min"}, {"measurement": "inhibition of other proteases", "setting": "[2]; 100 μM avathrin", "value": "< 30", "unit": "%"}, {"measurement": "selectivity preference for thrombin", "setting": "[2]; thrombin versus other serine proteases", "value": "at least four orders of magnitude"}]}
